In one assay the test system is H9 ishcat2 hESC line. The experiment in a line: Doxycycline-inducible shRNA knockdown of β-catenin (CTNNB1) during motor neuron differentiation. It is filed as cell-based, human. To be noted: H9 ishcat2, 3 days shRNA CTNNB1 knockdown upstream of CHIR 4 μM, day 3. The method, then: In the ventral neural tube, SHH signaling generates OLIG2^+ motor neuron progenitors that subsequently mature into post-mitotic ISL1^+ and/or HB9^+ motor neurons. To probe the role of Wnt/β-catenin signaling during this process in vitro, we utilized the H9 ishcat2 hESC line, which harbors a doxycycline-inducible shRNA against CTNNB1.
Similarly, we induced β-catenin knockdown while differentiating the hESCs into motor neurons via E6 neural induction with RA (1 μM), purmorphamine (PM, a small molecule agonist of sonic hedgehog signaling; 100 nM), and neurotrophic factor treatment, as previously described (FIG. 3A).
NKX6.1 is the earliest expressed marker in the motor neuron development cascade in vivo, so we examined its expression in response to Wnt/β-catenin, RA, and SHH signaling during hPSC motor neuron differentiation. H9 hESCs were differentiated in E6 medium for 2 days to initiate neural fate acquisition34 and then treated with combinations of RA, purmorphamine (PM, a small molecule agonist of SHH signaling), and CHIR for 24 h (FIG. 4A). […] Using the H9 ishcat2 line, we observed that CHIR-mediated induction of NKX6.1 was β-catenin-dependent, as the optimal 3 days of shRNA-mediated CTNNB1 knockdown upstream of CHIR treatment was required to maximally reduce NKX6.1 induction to 44±1% (FIG. 4E). The correlation between NKX6.1 knockdown and days of doxycycline treatment was presumably due to the time delay for shRNA synthesis and subsequent gene knockdown in Tet-on systems. […] Exogenously added WNT3A (200 ng/mL) could also induce NKX6.1 expression (60±14%) (FIG. 4G), providing further evidence for the involvement of Wnt/β-catenin signaling in this process. In contrast, simultaneous treatment with CHIR and BMP4 (200 ng/mL), a dorsal patterning factor, reduced the expression of NKX6.1 from 91±1% to 68±2% (FIG. 4H).
hESCs were maintained on Matrigel (BD Biosciences) in E8 medium but with 10-fold lower insulin concentration (2 mg/L). Cell lines used in this study were H9 hESCs (passage 25-45) and H9 ishcat2 hESCs (passage 35-45). […]

The next assay concerns GLI3. The experiment in a line: Western blot of full-length versus truncated repressor GLI3. To be noted: cultures maintained in 3 and 6 μM CHIR during PM/SHH exposure, day 6. It is filed as cell-based, human. The method, then:
To begin, we sequentially differentiated H9 hESCs in E6 media for 1 day, and FGF8b (200 ng/mL) for 1 day, and FGF8b and CHIR (3 μM) for 2 days to generate cervical neuromesoderm (FIGS. 5A-5B). Then, we screened the effects of CHIR, PM, and SHH treatment on NKX6.1^+/PAX6^+/OLIG2^+ motor neuron progenitor induction while transitioning to media containing 1 μM RA (FIGS. 5A-5D). Prior to the addition of RA, NKX6.1 was expressed in the cervical neuromesodermal state at day 4 (80±18% NKX6.1^+; data not shown), likely due to the CHIR-induced Wnt/β-catenin signaling (FIGS. 4A-4H). Transitioning the neuromesodermal progenitors to RA-containing media for 2 days induced HOXB4^+/HOXC6^+/HOXC9^−/HOXD10^−/PAX6^+ cervical neuroectoderm in all conditions (FIGS. 5B-5C), as expected. However, without co-activation of SHH signaling by PM or SHH, NKX6.1 expression was quickly lost by day 6 (97±1% PAX6^+, 17±3% NKX6.1^+) (FIG. 5C). […] To bolster this claim, we also analyzed the abundance of full-length GLI3 versus its truncated repressor form by western blot. […]
Cells were washed with cold PBS, harvested with accutase, and pelleted by centrifugation. […] Immunostained bands were detected using the SuperSignal West Pico Chemiluminescent Substrate kit (Thermo Fisher Scientific). […]
For orientation: A western blot detects proteins with antibodies after separation by electrophoresis.

We go through one molecule from US12084680B2, “Methods for efficient derivation of human motor neurons from diverse spinal regions” (Wisconsin Alumni Research Foundation, priority 2016, dated 2024).

With `Cc1c[nH]c(-c2cnc(NCCNc3ccc(C#N)cn3)nc2-c2ccc(Cl)cc2Cl)n1` [CHIR, CHIR99021], in the assay with H9 ishcat2 hESC line, the “NKX6.1 induction (flow cytometry)” value worked out at 44±1%. Moreover, the “GLI3 truncated repressor form level (western blot)” value in the assay with GLI3 was “increased levels of the GLI3 truncated repressor form”.
